{"source": "patent US6503939B2", "about": "“Combination regimens using 3,3-substituted indoline derivatives” (Wyeth, priority 1999, dated 2003)", "data": [{"smiles": "CC1Nc2ccc(-c3cccc([N+](=O)[O-])c3)cc2C1(C)C.Cl", "note": "(stereo not shown)", "values": [{"measurement": "melting point", "result": "240 to 241", "unit": "°C"}]}]}
